# Test results: patent publication US4075190A, “Pentapeptide with morphine-like activity” (American Home Products Corporation, priority 1977, dated 1978)
# Square brackets hold non-standard residues; d marks the D form. Peptide text beside a SMILES is read from it.
# Experiments:
# opiate receptors = experiment: displacement of 3H-naloxone from binding sites in rat brain homogenates
# rats [1] = experiment: rat-tail flick method, intracerebroventricular injection; assay type: in vivo; conditions: for Mean % Change ± SEM: change in latency, drug minus baseline; for analgesic effect / pain threshold: injected into the lateral brain ventricle; for analgesic effect / pain threshold / Mean Latency ± SEM, Drug: rat-tail flick; for Mean Latency ± SEM, Drug: after drug
# Description: In this test method, which is a standard test for analgesia, a light beam is focused on the tip of the rat's tail, and the pain threshold of the animal is measured by the latency of the rat to remove his tail from the noxious heat source. When tested by the rat-tail flick method by intracerebroventricular injection, according to the procedure of Belluzzi et al., Nature, 260, 625 (1976), the pentapeptide H-Tyr-Gly-Gly-Phe-d-Lys-OH produced the effects set forth in Table I.
# *All drugs were dissolved in […]. of Ringer's solution and injected int
# the lateral ventricle through permanently-indwelling cannulae.
# guinea pig ileum = conditions: cited from earlier work
# rats [2] = conditions: injection in the brain ventricle in rats; cited from earlier work
# mouse vas deferens = conditions: cited from earlier work
# opiate receptor = conditions: brain homogenates; cited from earlier work
# [3] = dose 100 μg into the lateral ventricle
# [4] = dose 10 μg into the lateral ventricle
compound,measurement,setting,value
"NCCCC[C@@H](NC(=O)[C@H](Cc1ccccc1)NC(=O)CNC(=O)CNC(=O)[C@@H](N)Cc1ccc(O)cc1)C(=O)O [H-Tyr-Gly-Gly-Phe-D-Lys-OH, L-Tyrosyl-Glycyl-Glycyl-L-Phenylalanyl-D-Lysine] (H-YGGF[dK]-OH)",binding to opiate receptors,opiate receptors; in vitro,weak binding
same,displacement of 3H-naloxone from binding sites,opiate receptors; rat brain homogenates,capable of displacing 3h-naloxone
same,Mean % Change ± SEM,rats [1]; [3],78.97 ± 7.85%
same,analgesic effect / pain threshold,rats [1],produced an increase in pain threshold
same,analgesic effect / pain threshold,rats [1]; listed as pentapeptide of Formula I,exerts an analgesic effect
same,"Mean Latency ± SEM, Drug",rats [1]; [3],6.16 ± 0.06
"CSCC[C@H](NC(=O)[C@H](Cc1ccccc1)NC(=O)CNC(=O)CNC(=O)[C@@H](N)Cc1ccc(O)cc1)C(=O)O [Methionine-Enkephalin, H-Tyr-Gly-Gly-Phe-Met-OH]",block of electrically evoked contractions,guinea pig ileum,mimic the ability of morphine to block electrically evoked contractions
same,analgesia,rats [2],induce a profound analgesia that is fully reversible by naloxone
same,block of electrically evoked contractions,mouse vas deferens,mimic the ability of morphine to block electrically evoked contractions
same,inhibition of stereospecific receptor binding of 3H-naloxone,opiate receptor,inhibit the stereospecific receptor binding
same,Mean % Change ± SEM,rats [1]; [3],37.2 ± 8.8%
same,"Mean Latency ± SEM, Drug",rats [1]; [3],5.19 ± 0.31
CN1CC[C@]23c4c5ccc(O)c4O[C@H]2[C@@H](O)C=C[C@H]3[C@H]1C5.O=S(=O)(O)O [Morphine Sulfate],Mean % Change ± SEM,rats [1]; [4],65.4 ± 9.1%
same,"Mean Latency ± SEM, Drug",rats [1]; [4],6.59 ± 0.73
H-Tyr-Gly-Gly-Phe-Leu-OH [leucine-enkephalin],analgesia,rats [2],induce a profound analgesia that is fully reversible by naloxone
